Measurements from patent US6448205B1, “Substituted 2-phenylpyridine as herbicide” (BASF Aktiengesellschaft, priority 1996, dated 2002).

- melting point: 118 °C
SMILES: COc1cc(-c2ncc([S+](C)[O-])cc2Cl)c(F)cc1Cl (stereo not shown) [No. 6, 3-Chloro-2-(4-chloro-2-fluoro-5-methoxyphenyl)-5-methylsulfinylpyridine]
